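96-well plates; 48 h exposure; 5 concentrations. Endpoints by linear interpolation between flanking doses. Not reached: highest tested concentration assigned. The concentration for 50% growth inhibition is given as GI50. At the TGI there is no net growth.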 Where a SMILES comes first, the peptide text is derived from it. [ ]: non-standard residue; d: D form. ξ: configuration not given here. Pentanoyl(2-O,4-OH,5-Cl) = O=C(O)C(O)CC(O)CCl; Ile(3ξ) = CCC(C)[C@H](N)C(=O)O; NMeV = CN[C@H](C(=O)O)C(C)C; NMeA = CN[C@@H](C)C(=O)O; βAla = NCCC(=O)O Where only a bound is given, the exact number is not on record here.

Some test systems named below: MDA-N; DLD-1 colon; DMS 273 small cell lung; KM20L2 colon; LXFL 529 NSCLC; M19-MEL melanoma; SNB-78 CNS; XF 498 CNS; RXF-631 renal.
What all share (experiment): NCI tumour cell line growth inhibition, 48 h

Take `Clc1ccc(NCNC2Nc3ccccc3N2)cc1Cl`: in the assay with MDA-N, the TGI is > 100 µM.
As to `O=C(c1ccccc1)[C@H]1Nc2ccc(Cl)cc2[C@H]2c3ccccc3O[C@H]21`, the TGI in the assay with DLD-1 colon was 30 µM; in the assay with DMS 273 small cell lung, 38.7 µM; in the assay on KM20L2 colon it was 28.3 µM; in the assay with LXFL 529 NSCLC, 28.5 µM; in the assay on M19-MEL melanoma, 39.5 µM; with SNB-78 CNS, 32.3 µM. Moreover, the TGI in the assay on XF 498 CNS turned out to be 28.2 µM.
For `O=C(c1ccccc1)c1nc2ccc(Cl)cc2cc1C(Br)Br`, the TGI in the assay on DLD-1 colon came to 0.706 µM; with DMS 273 small cell lung, 0.966 µM; with KM20L2 colon, 0.808 µM; in the assay with LXFL 529 NSCLC it was 0.77 µM; in the assay with M19-MEL melanoma it was 1.49 µM; with XF 498 CNS, 2.5 µM.
For `O=c1c2ccccc2c(=O)n2n1-c1cccc(c1)CSSCc1cccc-2c1`, the GI50 in the assay with DLD-1 colon, in the assay on DMS 273 small cell lung, in the assay with LXFL 529 NSCLC, with M19-MEL melanoma and with RXF-631 renal was > 100 µM throughout. The TGI with DLD-1 colon, in the assay with DMS 273 small cell lung, in the assay on KM20L2 colon, in the assay on LXFL 529 NSCLC, in the assay with M19-MEL melanoma and in the assay on RXF-631 renal was > 100 µM throughout. Further, the TGI in the assay on SNB-78 CNS and in the assay with XF 498 CNS was > 100 µM throughout.
For `CCC(C)[C@@H]1NC(=O)[C@@H]2CCCN2C(=O)C(CC(O)CCl)OC(=O)CCNC(=O)[C@H](C)N(C)C(=O)[C@H](C(C)C)N(C)C1=O` (stereo partly drawn) (cyclo([Ile(3ξ)][NMeV][NMeA][βAla][Pentanoyl(2-O,4-OH,5-Cl)]P)), the TGI with MDA-N is > 100 µM.
Consider `CC1=NC2(C(=O)O)C3(C(=O)O)N=C(C)OC3(C(F)(F)F)C2(C(F)(F)F)O1` (stereo not drawn), for which the TGI with DLD-1 colon, in the assay on DMS 273 small cell lung, in the assay on KM20L2 colon, in the assay on M19-MEL melanoma, in the assay on SNB-78 CNS and in the assay on XF 498 CNS was > 100 µM each time.
Consider `O=C1c2ccccc2C(=O)N1C/C=N/NS(=O)(=O)c1cccc([N+](=O)[O-])c1`, for which the TGI in the assay with DLD-1 colon, in the assay with DMS 273 small cell lung, with KM20L2 colon, with LXFL 529 NSCLC, in the assay on M19-MEL melanoma and in the assay on XF 498 CNS was > 100 µM throughout.
Regarding `CCOc1ccc2c(c1)[n+]([O-])c(-c1ccccc1)c(N)[n+]2[O-]`, the TGI in the assay with DLD-1 colon, with DMS 273 small cell lung, in the assay on KM20L2 colon, with LXFL 529 NSCLC, with M19-MEL melanoma and in the assay with XF 498 CNS was > 100 µM in each case.
Take `Cc1cc[c]([Sb]2[O]C(CO)C(C(O)C(O)C(=O)O)[O]2)cc1` (stereo not drawn): in the assay on MDA-N, the GI50 was 43.5 µM and the TGI was > 100 µM.
Take `CCOP(=O)(OCC)C(C(=O)OC)C(=O)C(=O)Nc1cccc([N+](=O)[O-])c1` (stereo not drawn): the TGI in the assay with DLD-1 colon, in the assay with DMS 273 small cell lung, in the assay with KM20L2 colon, in the assay with LXFL 529 NSCLC, in the assay on M19-MEL melanoma and in the assay with RXF-631 renal was > 100 µM throughout. For the same compound, the TGI with SNB-78 CNS and in the assay with XF 498 CNS was > 100 µM each time.
For `CN(N=O)C(=O)NC(CCCCNC(=O)OCc1ccccc1)C(=O)OCc1ccccc1` (stereo not drawn), the TGI was > 100 µM with DLD-1 colon; > 100 µM with DMS 273 small cell lung; > 100 µM with KM20L2 colon; 94 µM with LXFL 529 NSCLC; 91.2 µM with M19-MEL melanoma; 44.8 µM in the assay with RXF-631 renal. The TGI with SNB-78 CNS amounted to 60.4 µM; in the assay on XF 498 CNS, 30.6 µM.
As for `O=C(O)c1ccccc1NS(=O)(=O)c1ccc(Cl)cc1`, the TGI in the assay on DLD-1 colon, with DMS 273 small cell lung, in the assay with KM20L2 colon, in the assay with LXFL 529 NSCLC, in the assay with M19-MEL melanoma and in the assay with SNB-78 CNS was > 100 µM throughout. Moreover, the TGI in the assay with XF 498 CNS was > 100 µM.
Turning to `O=C(O)C1CCCN1` (stereo not drawn), in the assay on MDA-N, the TGI was > 100 µM.
On to `Cc1cc(C)c2c(c1)CSCc1cc(C)cc(C)c1-2`, for which the TGI in the assay with DLD-1 colon was > 100 µM; in the assay on DMS 273 small cell lung it was > 100 µM; with KM20L2 colon it was > 100 µM; with LXFL 529 NSCLC it was > 100 µM; with M19-MEL melanoma, 69.2 µM; in the assay on SNB-78 CNS, 62 µM.
`COc1cccc(C2CC(C)(O)Oc3cc4c(cc32)OCO4)c1` (stereo not drawn) showed a TGI in the assay on MDA-N of 7.84 µM.
For `CC(NC(=O)c1ccc(Cl)c(Cl)c1)c1ccc(-c2ccccc2)cc1` (stereo not drawn), the TGI with MDA-N is > 100 µM.
As for `Cc1cccc(-c2nc(=S)[nH][nH]2)c1`, the TGI with DLD-1 colon, with DMS 273 small cell lung, in the assay with KM20L2 colon, in the assay with LXFL 529 NSCLC, in the assay on M19-MEL melanoma and with RXF-631 renal was > 100 µM each time. Also, the TGI in the assay on SNB-78 CNS and with XF 498 CNS was > 100 µM throughout.
Consider `O=C1C2C3SC(c4cc5ccccc5cc43)C2C(=O)N1c1ccccc1` (stereo not drawn), for which the TGI with DMS 273 small cell lung, in the assay on KM20L2 colon, in the assay with LXFL 529 NSCLC, in the assay with M19-MEL melanoma, in the assay on RXF-631 renal and with SNB-78 CNS was > 100 µM each time.
With `CCN(CC)CC(C(=O)Nc1c(C)cccc1C)/C(C)=N\NC(=S)NN` (stereo not drawn), the TGI in the assay on DLD-1 colon, in the assay with DMS 273 small cell lung, with KM20L2 colon, in the assay on LXFL 529 NSCLC, in the assay on M19-MEL melanoma and with RXF-631 renal was > 100 µM throughout. In the assay with XF 498 CNS, the TGI was > 100 µM.
Regarding `O=[N+]([O-])c1ccc(Cl)c(C2CC(c3cccc4ccccc34)=Nc3ccccc3S2=O)c1` (stereo not drawn), the TGI in the assay with DLD-1 colon is 26.1 µM; with DMS 273 small cell lung, > 100 µM; with KM20L2 colon, > 63.6 µM; in the assay with LXFL 529 NSCLC, 52.8 µM; in the assay with M19-MEL melanoma, > 62.7 µM; in the assay on RXF-631 renal, > 100 µM. Besides, the TGI with SNB-78 CNS came to 38.9 µM.

Values taken from PubChem BioAssay (NCI).
